Measurements: patent US9649295B2, “Chemical inhibitors of soluble adenylyl cyclase (sAC)” (Cornell Research Foundation, Inc., priority 2004, dated 2017)

Columns and labels:
[1] = target: T1, purified solubilized version of Type VII tmAC (sol.AC7) (Homo sapiens, UniProt P51828); test: in vitro cyclase activity of purified solubilized Type VII tmAC; assay type: biochemical; conditions: read-out: in vitro IC50 pure sol.AC7
T1 construct: a mixture of purified catalytic domains, C1 and C2, from Type VII tmAC; made in house
T1 sequence (P51828 279-406 limits assumed): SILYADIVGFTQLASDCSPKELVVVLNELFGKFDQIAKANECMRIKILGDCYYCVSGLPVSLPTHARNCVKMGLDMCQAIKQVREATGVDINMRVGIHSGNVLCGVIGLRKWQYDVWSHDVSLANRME
T1 sequence (P51828 879-1023 limits assumed): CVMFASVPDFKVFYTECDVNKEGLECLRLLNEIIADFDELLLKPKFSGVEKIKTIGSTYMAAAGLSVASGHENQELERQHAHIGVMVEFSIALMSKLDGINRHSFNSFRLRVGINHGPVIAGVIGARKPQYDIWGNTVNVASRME

[2] = glucose tolerance test in C57BL/6 mice; assay type: in vivo, mouse
Description: C57B1/6 adult male mice were maintained on a 12 hour light/dark cycle, with free access to water and standard laboratory chow (Research Animal Resource Center, Weill Medical College of Cornell University). Animals were treated in accordance with our institutions guidelines. After a 14-16 hour overnight fast with free access to water, blood was removed from the tail vein for glucose (Hemocue B-Glucose Microcuvette and Analyzer; Hemocue, Inc., Lake Forest, Calif.) and insulin (Rat/Mouse Insulin ELISA Kit; Linco Research) measurements. Mice then received an i.p injection of 100 mM KH7 (100 μmoles/kg) or vehicle control. Twenty minutes later, both groups were injected i.p. with 1 g/kg glucose (20% solution). Blood samples were taken from the tail vein at times indicated, and glucose and insulin were quantitated according to manufacturer's instructions.

With `CC(Sc1nc2ccccc2[nH]1)C(=O)N/N=C/c1cc(Br)ccc1O` (stereo not shown) [KH7] the IC50 [1] was greater than 55 µM, the “glucose-induced serum insulin release” value ([2]; 100 μmoles/kg KH7 i.p., 1 g/kg glucose i.p.) was “no statistically significant glucose-induced insulin release was detected” and the glucose tolerance ([2]; 100 μmoles/kg [49 mg/kg] KH7 i.p., 1 g/kg glucose i.p.) was “glucose intolerant”. The “glucose tolerance test one week after injection” value ([2]; one week after KH7, no further drug, n=2) was “normal glucose tolerance and insulin response”.
